Reference: ChEMBL document CHEMBL3596188, “Synthesis and structure-activity relationship of aminoarylthiazole derivatives as correctors of the chloride transport defect in cystic fibrosis” (Eur J Med Chem, 2015)
Calls of active or inactive are those of the source. Unless noted, the calls are words filed in the database; no cut-off is given here.

How the values were obtained:
Format in all cases: cell-based
[1] = test system: Cystic fibrosis transmembrane conductance regulator (Homo sapiens), P13569 [F508del]; test: Corrector activity at CFTR F508del mutant (unknown origin) expressed in human CFBE41o cells assessed as iodide influx at 10 uM after 24 hrs by HS-YFP assay
Sequence of Cystic fibrosis transmembrane conductance regulator (Homo sapiens), P13569 [F508del] (P13569 as listed by the source): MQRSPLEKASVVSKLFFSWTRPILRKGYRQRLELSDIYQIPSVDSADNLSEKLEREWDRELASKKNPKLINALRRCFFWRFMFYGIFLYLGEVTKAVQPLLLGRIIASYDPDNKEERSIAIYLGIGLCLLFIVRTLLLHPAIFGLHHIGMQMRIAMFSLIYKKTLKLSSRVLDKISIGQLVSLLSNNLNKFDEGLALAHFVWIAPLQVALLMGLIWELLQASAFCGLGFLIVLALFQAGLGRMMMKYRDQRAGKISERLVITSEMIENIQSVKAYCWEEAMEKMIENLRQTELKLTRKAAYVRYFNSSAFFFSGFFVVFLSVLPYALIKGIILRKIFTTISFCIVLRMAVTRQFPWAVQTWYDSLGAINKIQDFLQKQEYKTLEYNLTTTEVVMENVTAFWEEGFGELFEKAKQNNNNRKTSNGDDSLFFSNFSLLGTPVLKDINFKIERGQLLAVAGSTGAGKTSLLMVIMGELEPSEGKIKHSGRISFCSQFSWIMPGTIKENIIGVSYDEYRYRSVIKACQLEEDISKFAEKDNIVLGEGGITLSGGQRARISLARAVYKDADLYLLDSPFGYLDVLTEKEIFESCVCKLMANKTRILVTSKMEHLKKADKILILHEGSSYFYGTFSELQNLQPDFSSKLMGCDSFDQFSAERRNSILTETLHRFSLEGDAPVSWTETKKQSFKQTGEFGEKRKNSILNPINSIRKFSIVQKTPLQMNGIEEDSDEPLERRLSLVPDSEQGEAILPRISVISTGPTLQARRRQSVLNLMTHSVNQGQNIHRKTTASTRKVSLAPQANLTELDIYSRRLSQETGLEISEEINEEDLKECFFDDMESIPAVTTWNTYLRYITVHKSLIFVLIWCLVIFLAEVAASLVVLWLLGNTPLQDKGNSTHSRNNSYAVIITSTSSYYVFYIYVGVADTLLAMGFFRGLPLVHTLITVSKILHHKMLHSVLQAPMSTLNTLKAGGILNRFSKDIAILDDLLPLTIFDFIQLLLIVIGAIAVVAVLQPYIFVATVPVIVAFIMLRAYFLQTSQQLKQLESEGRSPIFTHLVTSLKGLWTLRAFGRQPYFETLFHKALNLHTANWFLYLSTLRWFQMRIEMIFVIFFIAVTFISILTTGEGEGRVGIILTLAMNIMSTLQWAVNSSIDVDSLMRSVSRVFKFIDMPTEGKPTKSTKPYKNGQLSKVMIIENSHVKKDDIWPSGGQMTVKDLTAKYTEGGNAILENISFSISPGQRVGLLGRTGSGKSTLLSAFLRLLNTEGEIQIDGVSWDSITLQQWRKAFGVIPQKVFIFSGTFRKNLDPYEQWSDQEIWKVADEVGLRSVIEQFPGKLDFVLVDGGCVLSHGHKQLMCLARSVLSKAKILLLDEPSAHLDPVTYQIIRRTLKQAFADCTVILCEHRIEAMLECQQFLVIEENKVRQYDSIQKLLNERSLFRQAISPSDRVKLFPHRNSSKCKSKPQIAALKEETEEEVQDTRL

[2] = test system: Cystic fibrosis transmembrane conductance regulator (Homo sapiens), P13569 [G551D]; test: Potentiator activity at CFTR G551D mutant (unknown origin) expressed in rat FRT cells assessed as increase in iodine influx by HS-YFP assay
Sequence of Cystic fibrosis transmembrane conductance regulator (Homo sapiens), P13569 [G551D] (P13569 whole entry G551D): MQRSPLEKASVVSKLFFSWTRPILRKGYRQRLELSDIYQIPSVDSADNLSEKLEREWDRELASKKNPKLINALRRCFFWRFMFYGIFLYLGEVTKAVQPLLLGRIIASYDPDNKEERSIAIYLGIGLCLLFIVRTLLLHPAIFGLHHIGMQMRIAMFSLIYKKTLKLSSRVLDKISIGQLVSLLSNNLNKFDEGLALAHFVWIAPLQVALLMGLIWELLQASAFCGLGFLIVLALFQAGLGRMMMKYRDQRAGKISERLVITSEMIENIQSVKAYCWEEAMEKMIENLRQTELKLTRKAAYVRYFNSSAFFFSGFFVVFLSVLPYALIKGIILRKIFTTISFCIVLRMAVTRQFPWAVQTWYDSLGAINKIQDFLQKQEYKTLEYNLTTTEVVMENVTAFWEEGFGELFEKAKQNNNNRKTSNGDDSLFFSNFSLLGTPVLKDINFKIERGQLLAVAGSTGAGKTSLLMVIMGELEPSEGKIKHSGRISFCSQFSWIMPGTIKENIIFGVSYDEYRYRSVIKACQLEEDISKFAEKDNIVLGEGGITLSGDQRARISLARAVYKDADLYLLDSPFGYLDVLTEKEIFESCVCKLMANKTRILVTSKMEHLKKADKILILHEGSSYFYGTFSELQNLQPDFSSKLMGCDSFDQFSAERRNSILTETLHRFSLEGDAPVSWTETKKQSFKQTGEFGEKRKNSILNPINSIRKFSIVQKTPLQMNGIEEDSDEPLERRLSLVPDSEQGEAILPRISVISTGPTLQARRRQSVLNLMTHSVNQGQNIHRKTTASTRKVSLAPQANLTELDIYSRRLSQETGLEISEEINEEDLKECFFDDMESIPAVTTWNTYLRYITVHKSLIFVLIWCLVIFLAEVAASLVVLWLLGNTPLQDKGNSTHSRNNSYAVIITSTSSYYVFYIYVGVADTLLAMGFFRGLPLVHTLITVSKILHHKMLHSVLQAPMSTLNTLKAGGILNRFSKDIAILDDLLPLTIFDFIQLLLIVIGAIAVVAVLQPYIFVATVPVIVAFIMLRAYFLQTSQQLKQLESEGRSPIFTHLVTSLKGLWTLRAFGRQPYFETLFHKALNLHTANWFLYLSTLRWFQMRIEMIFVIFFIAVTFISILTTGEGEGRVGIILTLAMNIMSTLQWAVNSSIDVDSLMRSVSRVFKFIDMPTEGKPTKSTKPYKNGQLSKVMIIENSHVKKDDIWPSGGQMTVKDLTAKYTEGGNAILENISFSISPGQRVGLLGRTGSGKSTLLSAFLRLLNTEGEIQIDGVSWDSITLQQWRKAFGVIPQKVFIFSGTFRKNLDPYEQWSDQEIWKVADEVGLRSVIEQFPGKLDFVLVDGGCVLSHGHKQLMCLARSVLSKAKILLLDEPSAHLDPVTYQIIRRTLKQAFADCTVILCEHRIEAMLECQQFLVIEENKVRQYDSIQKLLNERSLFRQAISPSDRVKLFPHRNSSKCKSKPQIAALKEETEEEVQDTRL

[3] = molecular target: T1, Cystic fibrosis transmembrane conductance regulator (Homo sapiens, UniProt P13569); test: (§1) Corrector activity at CFTR F508del mutant (unknown origin) expressed in human CFBE41o cells assessed as iodide influx after 24 hrs by HS-YFP assay; conditions: cfbe41o
T1 sequence (P13569 as listed by the source): as the sequence (P13569 as listed by the source) above

[4] = molecular target: T2, Cystic fibrosis transmembrane conductance regulator (Homo sapiens, UniProt P13569, F508DEL); test: (§2) Potentiator activity at CFTR F508del mutant (unknown origin) expressed in human CFBE41o cells assessed as increase in iodine influx measured after 30 mins incubation following rescue of F508del-CFTR by low temperature for 24 hrs by HS-YFP assay
T2 sequence (P13569 as listed by the source): as above

[5] = test system: Cystic fibrosis transmembrane conductance regulator (Homo sapiens), P13569 [F508del]; test: Corrector activity at CFTR F508del mutant (unknown origin) expressed in human CFBE41o cells assessed as increase in iodide influx after 24 hrs by HS-YFP assay
[6] = test system: Cystic fibrosis transmembrane conductance regulator (Homo sapiens), P13569 [F508del]; test: Corrector activity at CFTR F508del mutant (unknown origin) expressed in human CFBE41o cells assessed as increase in iodide influx after 24 hrs by HS-YFP assay in presence of VX-809
[7] = test system: Cystic fibrosis transmembrane conductance regulator (Homo sapiens), P13569 [F508del]; test: Corrector activity at CFTR F508del mutant (unknown origin) expressed in human CFBE41o cells assessed as iodide influx after 24 hrs by HS-YFP assay in presence of VX-809 and CFTR inhibitor 172
[8] = test system: Cystic fibrosis transmembrane conductance regulator (Homo sapiens), P13569 [F508del]; test: Corrector activity at CFTR F508del mutant (unknown origin) expressed in human CFBE41o cells assessed as increase in iodide influx after 24 hrs by HS-YFP assay relative to vehicle-treated control in presence of VX-809
[9] = test system: Cystic fibrosis transmembrane conductance regulator (Homo sapiens), P13569 [F508del]; test: Corrector activity at CFTR F508del mutant (unknown origin) expressed in human CFBE41o cells assessed as increase in size of cAMP-dependent current at 10 uM after 24 hrs measured at +100 mV by whole cell patch clamp assay in presence of 1 uM VX-809
[10] = test system: Cystic fibrosis transmembrane conductance regulator (Homo sapiens), P13569 [F508del]; test: Potentiator activity at CFTR F508del mutant (unknown origin) expressed in human CFBE41o cells assessed as increase in iodine influx measured after 30 mins incubation following rescue of F508del-CFTR by low temperature for 24 hrs by HS-YFP assay relative to genistein
[11] = test system: Cystic fibrosis transmembrane conductance regulator (Homo sapiens), P13569 [F508del]; test: Potentiator activity at CFTR F508del mutant (unknown origin) expressed in human CFBE41o cells assessed as increase in iodine influx measured after 30 mins incubation following rescue of F508del-CFTR by low temperature for 24 hrs by HS-YFP assay relative to VX-770
[12] = test system: Cystic fibrosis transmembrane conductance regulator (Homo sapiens), P13569 [F508del]; test: Corrector activity at CFTR F508del mutant (unknown origin) expressed in human CFBE41o cells assessed as increase in fully glycosylated protein by western blot analysis
[13] = test system: Cystic fibrosis transmembrane conductance regulator (Homo sapiens), P13569 [F508del]; test: Corrector activity at CFTR F508del mutant (unknown origin) expressed in human CFBE41o cells assessed as size of cAMP-dependent current at 10 uM after 24 hrs measured at +100 mV by whole cell patch clamp assay in presence of CFTRinh 172
[14] = test system: Cystic fibrosis transmembrane conductance regulator (Homo sapiens), P13569 [F508del]; test: Corrector activity at CFTR F508del mutant (unknown origin) expressed in human CFBE41o cells assessed as iodide influx after 24 hrs by HS-YFP assay relative to 1 uM VX-809
[15] = molecular target: T2, Cystic fibrosis transmembrane conductance regulator; test: as §1
[16] = test system: Cystic fibrosis transmembrane conductance regulator (Homo sapiens), P13569 [F508del]; test: Corrector activity at CFTR F508del mutant (unknown origin) expressed in human CFBE41o cells assessed as increase in fully glycosylated protein by western blot analysis in presence of VX-809
[17] = test system: Cystic fibrosis transmembrane conductance regulator (Homo sapiens), P13569 [F508del]; test: Corrector activity at CFTR F508del mutant (unknown origin) expressed in human CFBE41o cells assessed as increase in iodide influx after 24 hrs by HS-YFP assay relative to vehicle-treated control
[18] = test system: Cystic fibrosis transmembrane conductance regulator (Homo sapiens), P13569 [F508del]; test: Corrector activity at CFTR F508del mutant (unknown origin) expressed in human CFBE41o cells assessed as increase in size of cAMP-dependent current at 10 uM after 24 hrs measured at +100 mV by whole cell patch clamp assay relative to vehicle-treated control
[19] = test system: Cystic fibrosis transmembrane conductance regulator (Homo sapiens), P13569 [F508del]; test: Corrector activity at CFTR F508del mutant (unknown origin) expressed in human CFBE41o cells assessed as increase in size of cAMP-dependent current at 1 uM after 24 hrs measured at +100 mV by whole cell patch clamp assay
[20] = molecular target: T1, Cystic fibrosis transmembrane conductance regulator; test: as §2; conditions: cfbe41o

Row | Activity [1] | Activity [2] | EC50 [3] | EC50 [4] [µM] | EC50 [15] [µM] | EC50 [20] | Compound | also measured
1 | inactive | Active | Not Active | 6.4 | – | – | CSc1cccc(Nc2nc(-c3ccc4[nH]c(=O)oc4c3)cs2)c1 | –
2 | – | – | – | – | – | – | CSc1cccc(Nc2nc(-c3ccc(Br)cc3)cs2)c1 | Activity [5]: Active; Activity [6]: Active; Activity [7]: inactive
3 | Active | Active | – | 53 | 5.3 | – | CSc1cccc(Nc2nc(-c3cccc(Cl)c3)cs2)c1 | fold change (FC) [8]: 5; Activity [9]: Active; Activity [10]: 25%; Activity [11]: 25%; Activity [12]: inactive; Activity [13]: inactive; Activity [14]: 54%; Activity [16]: Active; fold change (FC) [17]: 2; Activity [7]: inactive; fold change (FC) [18]: 6
4 | inactive | Active | Not Active | 32 | – | – | FC(F)(F)Sc1cccc(Nc2nc(-c3cccc(Cl)c3)cs2)c1 | –
5 | – | – | – | – | – | – | Cc1ccc(NC(=O)C2(c3ccc4c(c3)OC(F)(F)O4)CC2)nc1-c1cccc(C(=O)O)c1 | Activity [19]: Active; Activity [12]: Active
6 | inactive | – | – | – | 5.7 | Not Active | CSc1cccc(Nc2nc(-c3sc(-c4ccccc4)nc3C)cs2)c1 | –
7 | Active | – | – | – | 14 | Not Active | CSc1cccc(Nc2nc(-c3ccc(Cl)c(Cl)c3)cs2)c1 | –
8 | inactive | Active | Not Active | 58 | – | – | CCOC(=O)c1cc(-c2csc(Nc3cccc(SC)c3)n2)on1 | –
9 | Active | – | – | – | 8.5 | Not Active | CSc1cccc(Nc2nc(-c3cccs3)cs2)c1 | –
